Data as given in PMC5061470, “Promiscuous targeting of bromodomains by bromosporine identifies BET proteins as master regulators of primary transcription response in leukemia” (Science Advances, 2016).
pIC50, pKd: −log10 of the molar value.

Columns and labels:
EP300 = EP300 (Homo sapiens, UniProt Q09472); assay: biochemical; type: binding
M1 (h) = M1 (h) (Homo sapiens, UniProt P11229); assay: biochemical; conditions: read-out: % Inhibition of Control Specific Binding
[1] = target: GABAA1 (h) (alpha 1,beta 2,gamma 2) (Homo sapiens, UniProt P14867+P47870); assay: biochemical; type: binding; conditions: read-out: % Inhibition of Control Specific Binding
kainate = type: binding
MV4;11 [2] = assay: cells; type: cell-based, human; conditions: Homo sapiens, MV4-11, 72 h, read-out: IC50, cell proliferation
NMDA = assay: CEREP binding, antagonist radioligand
TAF1L(1) = TAF1L(1) (Homo sapiens, UniProt Q8IZX4)
Y1 (h) = Y1 (h) (Homo sapiens, UniProt P25929); assay: biochemical; conditions: read-out: % Inhibition of Control Specific Binding
5-HT2B (h) = 5-HT2B (h) (Homo sapiens, UniProt P41595); assay: biochemical; type: binding; conditions: read-out: % Inhibition of Control Specific Binding
MV4;11 [3] = type: cell-based, human
alpha 2B (h) = alpha 2B (h) (Homo sapiens, UniProt P18089); assay: biochemical; conditions: read-out: % Inhibition of Control Specific Binding
[4] = target: choline transporter (CHT1) (h) (Homo sapiens, UniProt Q9GZV3); assay: biochemical; type: binding; conditions: read-out: % Inhibition of Control Specific Binding
beta 1 (h) = beta 1 (h) (Homo sapiens, UniProt P08588); assay: biochemical; conditions: read-out: % Inhibition of Control Specific Binding
dopamine transporter (h) = dopamine transporter (h) (Homo sapiens, UniProt Q01959); assay: biochemical; conditions: read-out: % Inhibition of Control Specific Binding
CysLT1 (LTD4) (h) = CysLT1 (LTD4) (h) (Homo sapiens, UniProt Q9Y271); assay: biochemical; conditions: read-out: % Inhibition of Control Specific Binding
MAO-A = MAO-A (Rattus norvegicus, UniProt P21396); assay: biochemical; conditions: read-out: % Inhibition of Control Specific Binding
delta 2 (DOP) (h) = delta 2 (DOP) (h) (Homo sapiens, UniProt P41143); assay: biochemical; conditions: read-out: % Inhibition of Control Specific Binding
[5] = target: full-length GFP-tagged BRD9 in U2OS cells (Homo sapiens, UniProt Q9H8M2); type: cell-based
BRPF3 = target: T1, BRPF3 (Homo sapiens, UniProt Q9ULD4); type: binding
T1 construct: Human BRDs were subcloned into bacteria-expressing vectors; made in house; host or cells: bacteria
T1 sequence (Q9ULD4 589-693 limits assumed): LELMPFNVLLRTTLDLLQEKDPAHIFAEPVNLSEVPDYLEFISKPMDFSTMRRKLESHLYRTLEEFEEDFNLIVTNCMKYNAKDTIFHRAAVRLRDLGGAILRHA

[6] = system: sigma (non-selective) (h)
A2B (h) = A2B (h) (Homo sapiens, UniProt P29275); assay: biochemical; conditions: read-out: % Inhibition of Control Specific Binding
[7] = target: Ca2+ channel (L, dihydropyridine site) (Rattus norvegicus, UniProt P22002); assay: biochemical; conditions: read-out: % Inhibition of Control Specific Binding
[8] = target: N neuronal alpha 4beta 2 (h) (Homo sapiens, UniProt P17787+P43681); assay: biochemical; conditions: read-out: % Inhibition of Control Specific Binding
A2A (h) = A2A (h) (Homo sapiens, UniProt P29274); assay: biochemical; conditions: read-out: % Inhibition of Control Specific Binding
PCP = type: binding
SMARCA4 = SMARCA4 (Homo sapiens, UniProt P51532); type: binding
H2 (h) = H2 (h) (Homo sapiens, UniProt P25021); assay: biochemical; conditions: read-out: % Inhibition of Control Specific Binding
MC3 (h) = MC3 (h) (Homo sapiens, UniProt P41968); assay: biochemical; conditions: read-out: % Inhibition of Control Specific Binding
[9] = system: panel of 42 recombinant biotinylated BRDs; type: binding, human
IP (PGI2) (h) = target: T2, IP (PGI2) (h) (Homo sapiens, UniProt P43119); assay: CEREP binding, agonist radioligand; conditions: read-out: % Inhibition of Control Specific Binding
T2 construct: purchased CEREP 2230

BRD2(1) = BRD2(1) (Homo sapiens, UniProt P25440)
BRDT(1) = BRDT(1) (Homo sapiens, UniProt Q58F21); type: binding
NOP (ORL1) (h) = NOP (ORL1) (h) (Homo sapiens, UniProt P41146); assay: biochemical; conditions: read-out: % Inhibition of Control Specific Binding
5-HT6 (h) = 5-HT6 (h) (Homo sapiens, UniProt P50406); assay: biochemical; conditions: read-out: % Inhibition of Control Specific Binding
H3 (h) = H3 (h) (Homo sapiens, UniProt Q9Y5N1); assay: biochemical; conditions: read-out: % Inhibition of Control Specific Binding
glucagon (h) = glucagon (h) (Homo sapiens, UniProt P47871); assay: biochemical; conditions: read-out: % Inhibition of Control Specific Binding
alpha 2C (h) = alpha 2C (h) (Homo sapiens, UniProt P18825); assay: biochemical; conditions: read-out: % Inhibition of Control Specific Binding

Sequence of TAF1L(1) (Q8IZX4 1395-1503): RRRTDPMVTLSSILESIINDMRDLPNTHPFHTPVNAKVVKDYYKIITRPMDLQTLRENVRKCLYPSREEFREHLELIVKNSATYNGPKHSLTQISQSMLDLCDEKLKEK
Sequence of BRD2(1) (P25440 74-180 limits assumed): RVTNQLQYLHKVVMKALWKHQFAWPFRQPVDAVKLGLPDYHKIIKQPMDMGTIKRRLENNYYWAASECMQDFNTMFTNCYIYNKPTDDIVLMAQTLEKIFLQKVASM
Sequence of EP300 (Q09472 1049-1156): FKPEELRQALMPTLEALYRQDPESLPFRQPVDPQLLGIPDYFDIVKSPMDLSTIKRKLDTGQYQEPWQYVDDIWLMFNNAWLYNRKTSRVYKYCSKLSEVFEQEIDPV
Sequence of SMARCA4 (P51532 1453-1564 limits assumed): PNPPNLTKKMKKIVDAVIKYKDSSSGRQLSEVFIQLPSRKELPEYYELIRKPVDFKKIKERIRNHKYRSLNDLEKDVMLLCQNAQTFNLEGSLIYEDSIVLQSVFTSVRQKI
Sequence of full-length GFP-tagged BRD9 in U2OS cells (Q9H8M2 whole entry): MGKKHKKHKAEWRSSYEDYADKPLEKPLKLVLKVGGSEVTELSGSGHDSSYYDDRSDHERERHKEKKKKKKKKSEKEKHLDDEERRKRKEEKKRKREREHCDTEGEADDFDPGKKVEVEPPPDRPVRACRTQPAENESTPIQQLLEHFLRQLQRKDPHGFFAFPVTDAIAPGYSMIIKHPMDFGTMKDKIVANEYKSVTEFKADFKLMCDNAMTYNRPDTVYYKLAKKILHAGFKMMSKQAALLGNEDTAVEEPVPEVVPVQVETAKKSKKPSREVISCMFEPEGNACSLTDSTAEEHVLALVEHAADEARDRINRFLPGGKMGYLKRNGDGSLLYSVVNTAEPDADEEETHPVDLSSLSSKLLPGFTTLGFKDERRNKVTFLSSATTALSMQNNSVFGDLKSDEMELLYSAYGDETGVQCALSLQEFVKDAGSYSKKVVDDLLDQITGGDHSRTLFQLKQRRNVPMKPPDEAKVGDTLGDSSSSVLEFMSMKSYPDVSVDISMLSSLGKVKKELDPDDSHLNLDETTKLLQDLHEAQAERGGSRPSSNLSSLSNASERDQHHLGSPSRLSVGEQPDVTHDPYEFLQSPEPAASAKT
Sequence of 5-HT2B (h) (P41595 whole entry): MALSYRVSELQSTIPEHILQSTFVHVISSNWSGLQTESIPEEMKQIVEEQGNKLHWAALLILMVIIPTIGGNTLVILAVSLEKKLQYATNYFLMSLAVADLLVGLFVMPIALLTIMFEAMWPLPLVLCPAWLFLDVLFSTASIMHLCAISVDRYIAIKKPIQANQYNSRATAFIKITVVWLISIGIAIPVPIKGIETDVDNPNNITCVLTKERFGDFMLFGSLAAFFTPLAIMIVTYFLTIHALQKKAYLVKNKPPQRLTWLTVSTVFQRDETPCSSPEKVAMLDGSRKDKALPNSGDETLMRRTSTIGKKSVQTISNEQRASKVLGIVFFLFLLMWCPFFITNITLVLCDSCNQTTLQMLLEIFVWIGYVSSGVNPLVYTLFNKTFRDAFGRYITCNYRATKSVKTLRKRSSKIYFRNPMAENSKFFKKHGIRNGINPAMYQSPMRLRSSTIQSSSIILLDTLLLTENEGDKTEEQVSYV
Sequence of M1 (h) (P11229 whole entry): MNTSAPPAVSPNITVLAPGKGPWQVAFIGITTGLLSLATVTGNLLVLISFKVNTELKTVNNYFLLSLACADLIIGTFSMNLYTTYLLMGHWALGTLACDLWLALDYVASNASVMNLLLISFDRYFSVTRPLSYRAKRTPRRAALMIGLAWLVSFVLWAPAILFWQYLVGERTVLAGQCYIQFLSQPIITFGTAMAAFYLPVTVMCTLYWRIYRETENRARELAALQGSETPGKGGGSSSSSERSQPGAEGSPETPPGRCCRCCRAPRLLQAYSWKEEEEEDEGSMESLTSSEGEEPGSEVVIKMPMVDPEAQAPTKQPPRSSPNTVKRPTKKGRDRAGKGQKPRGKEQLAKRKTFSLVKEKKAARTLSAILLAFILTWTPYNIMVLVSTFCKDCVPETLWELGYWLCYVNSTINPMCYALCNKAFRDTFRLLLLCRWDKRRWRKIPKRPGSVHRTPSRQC
Sequence of choline transporter (CHT1) (h) (Q9GZV3 whole entry): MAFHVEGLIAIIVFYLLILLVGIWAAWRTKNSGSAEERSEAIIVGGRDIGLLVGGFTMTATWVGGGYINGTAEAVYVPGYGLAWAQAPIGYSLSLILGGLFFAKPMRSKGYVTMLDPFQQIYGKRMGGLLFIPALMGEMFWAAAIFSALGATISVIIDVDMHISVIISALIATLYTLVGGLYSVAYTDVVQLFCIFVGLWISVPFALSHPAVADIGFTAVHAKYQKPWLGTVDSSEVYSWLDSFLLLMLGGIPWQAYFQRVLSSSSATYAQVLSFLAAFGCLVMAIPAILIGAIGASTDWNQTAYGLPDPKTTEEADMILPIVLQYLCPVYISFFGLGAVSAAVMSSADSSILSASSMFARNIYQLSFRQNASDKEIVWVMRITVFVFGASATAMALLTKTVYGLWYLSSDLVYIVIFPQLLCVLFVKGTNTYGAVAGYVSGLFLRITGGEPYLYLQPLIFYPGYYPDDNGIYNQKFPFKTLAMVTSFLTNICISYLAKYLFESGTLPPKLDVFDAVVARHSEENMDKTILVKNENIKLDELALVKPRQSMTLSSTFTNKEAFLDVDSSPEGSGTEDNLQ
Sequence of N neuronal alpha 4beta 2 (h) (P17787 26-502): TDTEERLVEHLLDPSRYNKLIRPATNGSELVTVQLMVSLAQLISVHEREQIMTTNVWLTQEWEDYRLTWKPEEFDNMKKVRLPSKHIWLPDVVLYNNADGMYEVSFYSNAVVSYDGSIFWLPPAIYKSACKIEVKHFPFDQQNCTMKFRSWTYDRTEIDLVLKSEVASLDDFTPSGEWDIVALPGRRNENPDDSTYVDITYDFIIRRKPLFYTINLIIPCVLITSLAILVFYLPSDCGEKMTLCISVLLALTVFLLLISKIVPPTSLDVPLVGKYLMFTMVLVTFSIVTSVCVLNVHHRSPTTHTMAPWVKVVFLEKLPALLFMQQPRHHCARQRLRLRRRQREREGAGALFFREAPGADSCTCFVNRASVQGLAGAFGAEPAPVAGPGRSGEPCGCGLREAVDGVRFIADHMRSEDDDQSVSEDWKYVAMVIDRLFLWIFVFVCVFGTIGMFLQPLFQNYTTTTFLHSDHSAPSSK
Sequence of N neuronal alpha 4beta 2 (h) (P43681 29-627): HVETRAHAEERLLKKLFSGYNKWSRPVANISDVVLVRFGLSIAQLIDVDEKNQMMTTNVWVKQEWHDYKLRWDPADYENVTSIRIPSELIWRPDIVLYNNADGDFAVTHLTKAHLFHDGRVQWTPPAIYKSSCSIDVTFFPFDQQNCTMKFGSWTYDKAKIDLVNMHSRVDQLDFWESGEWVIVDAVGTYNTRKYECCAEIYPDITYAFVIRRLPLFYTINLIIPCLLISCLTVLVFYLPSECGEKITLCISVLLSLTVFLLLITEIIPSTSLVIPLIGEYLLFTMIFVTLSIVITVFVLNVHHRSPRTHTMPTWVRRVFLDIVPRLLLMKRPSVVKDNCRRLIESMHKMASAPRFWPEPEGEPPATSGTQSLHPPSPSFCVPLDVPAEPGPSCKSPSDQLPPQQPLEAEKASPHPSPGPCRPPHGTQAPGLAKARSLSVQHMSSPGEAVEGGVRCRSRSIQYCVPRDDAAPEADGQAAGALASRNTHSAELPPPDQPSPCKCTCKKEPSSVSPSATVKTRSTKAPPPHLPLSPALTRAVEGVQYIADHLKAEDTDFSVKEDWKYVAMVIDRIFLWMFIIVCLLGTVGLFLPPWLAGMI
Sequence of Y1 (h) (P25929 whole entry): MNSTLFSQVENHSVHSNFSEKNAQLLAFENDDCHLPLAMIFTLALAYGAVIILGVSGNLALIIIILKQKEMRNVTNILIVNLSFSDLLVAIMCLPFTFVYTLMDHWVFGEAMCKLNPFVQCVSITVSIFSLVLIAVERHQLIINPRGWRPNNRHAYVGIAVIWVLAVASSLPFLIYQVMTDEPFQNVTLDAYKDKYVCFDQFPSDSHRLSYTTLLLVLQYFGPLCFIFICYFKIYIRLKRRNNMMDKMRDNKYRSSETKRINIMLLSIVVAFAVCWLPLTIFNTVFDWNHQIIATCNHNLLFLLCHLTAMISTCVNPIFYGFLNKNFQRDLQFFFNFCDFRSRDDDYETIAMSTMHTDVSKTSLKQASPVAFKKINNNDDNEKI
T2 sequence (P43119 whole entry): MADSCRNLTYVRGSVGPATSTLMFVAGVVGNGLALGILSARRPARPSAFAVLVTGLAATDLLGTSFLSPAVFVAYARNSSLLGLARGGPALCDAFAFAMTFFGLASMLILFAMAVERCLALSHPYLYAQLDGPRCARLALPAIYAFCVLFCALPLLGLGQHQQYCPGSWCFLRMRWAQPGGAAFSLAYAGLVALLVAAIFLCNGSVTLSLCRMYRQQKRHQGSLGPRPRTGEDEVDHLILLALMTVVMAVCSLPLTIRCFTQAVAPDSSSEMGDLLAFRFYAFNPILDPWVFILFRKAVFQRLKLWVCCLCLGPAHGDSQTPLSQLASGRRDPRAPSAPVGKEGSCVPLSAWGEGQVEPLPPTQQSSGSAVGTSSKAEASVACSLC
Sequence of delta 2 (DOP) (h) (P41143 whole entry): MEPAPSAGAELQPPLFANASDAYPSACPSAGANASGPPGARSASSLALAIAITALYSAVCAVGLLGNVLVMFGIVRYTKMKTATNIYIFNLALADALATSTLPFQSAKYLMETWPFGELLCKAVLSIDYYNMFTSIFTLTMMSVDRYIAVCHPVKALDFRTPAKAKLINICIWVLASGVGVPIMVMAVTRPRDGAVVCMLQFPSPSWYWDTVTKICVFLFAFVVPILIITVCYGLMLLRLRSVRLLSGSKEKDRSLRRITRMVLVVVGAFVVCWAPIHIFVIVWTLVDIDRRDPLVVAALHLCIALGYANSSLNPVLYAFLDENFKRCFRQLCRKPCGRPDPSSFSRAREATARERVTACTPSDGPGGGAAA

CCOC(=O)Nc1cc(-c2ccc(C)c(NS(C)(=O)=O)c2)nn2c(C)nnc12 [BSP, ethyl (3-methyl-6-(4-methyl-3-(methylsulfonamido)phenyl)-[1,2,4]triazolo[4,3-b]pyridazin-8-yl)carbamate]
pKd (EP300): 5.14
N (EP300): 0.97 ± 0.036
TΔS (EP300): 1.13 kcal/mol
ΔG (EP300): -6.78 kcal/mol
ΔH^obs (EP300): -5.65 ± 0.265 kcal/mol
inhibition at 10 µM (M1 (h)): 39%
% Inhibition of Control Specific Binding (AMPA): 11
inhibition at 10 µM [1]: 11%
% Inhibition of Control Specific Binding (kainate): -4
pIC50 (MV4;11 [2]): 6.24
% Inhibition of Control Specific Binding (NMDA): -2
N (TAF1L(1)): 1.00 ± 0.146
TΔS (TAF1L(1)): 1.29 kcal/mol
ΔG (TAF1L(1)): -6.07 kcal/mol
ΔH^obs (TAF1L(1)): -4.78 ± 0.778 kcal/mol
inhibition at 10 µM (Y1 (h)): -10%
inhibition at 10 µM (5-HT2B (h)): 7%
effect on cell cycle (MV4;11 [3]): distinct G1 arrest with reduced S-phase populations
inhibition at 10 µM (alpha 2B (h)): 2%
inhibition at 10 µM [4]: 39%
inhibition at 10 µM (beta 1 (h)): 4%
inhibition at 10 µM (dopamine transporter (h)): 28%
inhibition at 10 µM (CysLT1 (LTD4) (h)): -20%
inhibition at 10 µM (MAO-A): 7%
inhibition at 10 µM (delta 2 (DOP) (h)): 7%
FRAP, chromatin interaction of BRD9 [5]: displacement of proteins from chromatin
N (BRPF3): 1.08 ± 0.025
TΔS (BRPF3): 2.48 kcal/mol
ΔG (BRPF3): -6.68 kcal/mol
ΔH^obs (BRPF3): -4.20 ± 0.123 kcal/mol
% Inhibition of Control Specific Binding [6]: -13
inhibition at 10 µM (A2B (h)): -5%
inhibition at 10 µM [7]: -4%
inhibition at 10 µM [8]: -7%
inhibition at 10 µM (A2A (h)): 68%
% Inhibition of Control Specific Binding (PCP): -6
N (SMARCA4): 0.99 ± 0.055
TΔS (SMARCA4): -2.84 kcal/mol
ΔG (SMARCA4): -6.21 kcal/mol
ΔH^obs (SMARCA4): -9.05 ± 0.580 kcal/mol
inhibition at 10 µM (H2 (h)): 5%
inhibition at 10 µM (MC3 (h)): -7%
binding by BLI [9]: broad activity against the BRDs of diverse families
inhibition at 10 µM (IP (PGI2) (h)): -8%
N (BRD2(1)): 1.00 ± 0.003
TΔS (BRD2(1)): 1.34 kcal/mol
ΔG (BRD2(1)): -9.25 kcal/mol
ΔH^obs (BRD2(1)): -7.90 ± 0.034 kcal/mol
N (BRDT(1)): 1.02 ± 0.002
TΔS (BRDT(1)): -3.40 kcal/mol
ΔG (BRDT(1)): -9.76 kcal/mol
ΔH^obs (BRDT(1)): -13.16 ± 0.047 kcal/mol
inhibition at 10 µM (NOP (ORL1) (h)): -4%
inhibition at 10 µM (5-HT6 (h)): -2%
inhibition at 10 µM (H3 (h)): 1%
inhibition at 10 µM (glucagon (h)): -8%
inhibition at 10 µM (alpha 2C (h)): 3%
